Experimental data taken from article PMC9848300, “Discovery of novel enasidenib analogues targeting inhibition of mutant isocitrate dehydrogenase 2 as antileukaemic agents” (Journal of Enzyme Inhibition and Medicinal Chemistry, 2023).

Experiments:
NCI/ADR-RES = experiment: NCI 60 antitumor screening (single dose / five doses); type: cell-based; conditions: Homo sapiens; NCI/ADR-RES (ovarian cancer), single dose 10 μM; read-out: Growth inhibition percentage (GI %)
A498 = experiment: as above; type: cell-based; conditions: Homo sapiens; A498 (renal cancer), single dose 10 μM; read-out: Growth inhibition percentage (GI %)
MALME-3M = experiment: as above; type: cell-based; conditions: Homo sapiens; MALME-3M (melanoma), single dose 10 μM; read-out: Growth inhibition percentage (GI %)
HCT-15 = experiment: as above; type: cell-based; conditions: Homo sapiens; HCT-15 (colon cancer), single dose 10 μM; read-out: Growth inhibition percentage (GI %)
SK-MEL-28 = experiment: as above; type: cell-based; conditions: Homo sapiens; SK-MEL-28 (melanoma), single dose 10 μM; read-out: Growth inhibition percentage (GI %)
UO-31 = experiment: as above; type: cell-based; conditions: Homo sapiens; UO-31 (renal cancer), single dose 10 μM; read-out: Growth inhibition percentage (GI %)
UACC-62 = experiment: as above; type: cell-based; conditions: Homo sapiens; UACC-62 (melanoma), single dose 10 μM; read-out: Growth inhibition percentage (GI %)
COLO 205 = experiment: as above; type: cell-based; conditions: Homo sapiens; COLO 205 (colon cancer), single dose 10 μM; read-out: Growth inhibition percentage (GI %)
T-47D = experiment: as above; type: cell-based; conditions: Homo sapiens, T47D; T-47D (breast cancer), single dose 10 μM; read-out: Growth inhibition percentage (GI %)
SW-620 = experiment: as above; type: cell-based, human; conditions: Homo sapiens; SW-620 (colon cancer), single dose 10 μM; read-out: Growth inhibition percentage (GI %)
MDA-MB-231/ATCC = experiment: as above; type: cell-based; conditions: Homo sapiens; MDA-MB-231/ATCC (breast cancer), single dose 10 μM; read-out: Growth inhibition percentage (GI %)
MDA-MB-468 = experiment: as above; type: cell-based; conditions: Homo sapiens; MDA-MB-468 (breast cancer), single dose 10 μM; read-out: Growth inhibition percentage (GI %)
SK-MEL-2 = experiment: as above; type: cell-based; conditions: Homo sapiens; SK-MEL-2 (melanoma), single dose 10 μM; read-out: Growth inhibition percentage (GI %)
EKVX = experiment: as above; type: cell-based; conditions: Homo sapiens; EKVX (non-small cell lung cancer), single dose 10 μM; read-out: Growth inhibition percentage (GI %)
ACHN = experiment: as above; type: cell-based; conditions: Homo sapiens; ACHN (renal cancer), single dose 10 μM; read-out: Growth inhibition percentage (GI %)
IGROV1 = experiment: as above; type: cell-based; conditions: Homo sapiens, IGROV-1; IGROV1 (ovarian cancer), single dose 10 μM; read-out: Growth inhibition percentage (GI %)
SF-539 = experiment: as above; type: cell-based; conditions: Homo sapiens; SF-539 (CNS cancer), single dose 10 μM; read-out: Growth inhibition percentage (GI %)
HCT-116 = experiment: as above; type: cell-based; conditions: Homo sapiens; HCT-116 (colon cancer), single dose 10 μM; read-out: Growth inhibition percentage (GI %)
SF-295 = experiment: as above; type: cell-based; conditions: Homo sapiens; SF-295 (CNS cancer), single dose 10 μM; read-out: Growth inhibition percentage (GI %)
SK-MEL-5 = experiment: as above; type: cell-based; conditions: Homo sapiens; SK-MEL-5 (melanoma), single dose 10 μM; read-out: Growth inhibition percentage (GI %)
SNB-75 = experiment: as above; type: cell-based; conditions: Homo sapiens; SNB-75 (CNS cancer), single dose 10 μM; read-out: Growth inhibition percentage (GI %)
[1] = tested on: 60 human subpanel cancer cell lines; experiment: NCI 60 antitumor screening, mean over the panel (single dose); type: cell-based; conditions: mean over 60 cancer cell lines, single dose 10 μM
Method in brief: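 Assessment used the first tier of the NCI 60 screen, one dose of 10 μM per compound. Triplicate experiments gave percent growth of treated cells. Inhibition was then derived as 100 − G%.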

K-562 = experiment: NCI 60 antitumor screening (single dose / five doses); type: cell-based; conditions: Homo sapiens, K562; K-562 (leukaemia), single dose 10 μM; read-out: Growth inhibition percentage (GI %)
HL-60(TB) = experiment: as above; type: cell-based; conditions: Homo sapiens; HL-60(TB) (leukaemia), single dose 10 μM; read-out: Growth inhibition percentage (GI %)
CCRF-CEM = experiment: as above; type: cell-based; conditions: Homo sapiens; CCRF-CEM (leukaemia), single dose 10 μM; read-out: Growth inhibition percentage (GI %)
SN 12C = experiment: as above; type: cell-based; conditions: Homo sapiens, SN12C; SN 12C (renal cancer), single dose 10 μM; read-out: Growth inhibition percentage (GI %)
MOLT-4 = experiment: as above; type: cell-based; conditions: Homo sapiens; MOLT-4 (leukaemia), single dose 10 μM; read-out: Growth inhibition percentage (GI %)
HT29 = experiment: as above; type: cell-based, human; conditions: Homo sapiens, HT-29; HT29 (colon cancer), single dose 10 μM; read-out: Growth inhibition percentage (GI %)
LOX IMVI = experiment: as above; type: cell-based; conditions: Homo sapiens; LOX IMVI (melanoma), single dose 10 μM; read-out: Growth inhibition percentage (GI %)

Row | SMILES | inhibition at 10 µM (NCI/ADR-RES) [%] | inhibition at 10 µM (A498) [%] | inhibition at 10 µM (MALME-3M) [%] | inhibition at 10 µM (HCT-15) [%] | inhibition at 10 µM (SK-MEL-28) [%] | inhibition at 10 µM (UO-31) [%] | inhibition at 10 µM (UACC-62) [%] | inhibition at 10 µM (COLO 205) [%] | inhibition at 10 µM (T-47D) [%] | inhibition at 10 µM (SW-620) [%] | inhibition at 10 µM (MDA-MB-231/ATCC) [%] | inhibition at 10 µM (MDA-MB-468) [%] | inhibition at 10 µM (SK-MEL-2) [%] | inhibition at 10 µM (EKVX) [%] | inhibition at 10 µM (ACHN) [%] | inhibition at 10 µM (IGROV1) [%] | inhibition at 10 µM (SF-539) [%] | inhibition at 10 µM (HCT-116) [%] | inhibition at 10 µM (SF-295) [%] | inhibition at 10 µM (SK-MEL-5) [%] | also measured
1 | Oc1ccc(/C=N/Nc2nc(N/N=C/c3ccc(O)c(O)c3)nc(N3CCOCC3)n2)cc1O [compound 6j, 4-[(1e)-(2-{4-[(E)-2-[(3,4-Dihydroxyphenyl)methylidene]hydrazin-1-yl]-6-(morpholin-4-yl)-1,3,5-triazin-2-yl}hydrazin-1-ylidene)methyl]benzene-1,2-diol] | -5.32 | 2.87 | -4.04 | -2.93 | -2.58 | 15.4 | 2.19 | -7.11 | 7.67 | -3.6 | 1.27 | 6.49 | 3.04 | 5.31 | -1.32 | -6.08 | -3.18 | -6.01 | -3.97 | 2.65 | inhibition at 10 µM (SNB-75): -1.54%; Mean GI % [1]: -2.12%; inhibition at 10 µM (K-562): -5.6%; inhibition at 10 µM (HL-60(TB)): 0.38%; inhibition at 10 µM (CCRF-CEM): -2.09%; inhibition at 10 µM (SN 12C): 0.16%; inhibition at 10 µM (MOLT-4): -1.68%; inhibition at 10 µM (HT29): -12%; inhibition at 10 µM (LOX IMVI): -5.85%
2 | Fc1cccc(Cl)c1/C=N/Nc1nc(N/N=C/c2c(F)cccc2Cl)nc(N2CCOCC2)n1 [compound 6l, 2,4-Bis[(E)-2-[(2-Chloro-6-fluorophenyl)methylidene]hydrazin-1-yl]-6-(morpholin-4-yl)-1,3,5-triazine] | 16.8 | 26.9 | 16 | 22.1 | 10 | 33.5 | 19.8 | 29.6 | 29.5 | 9.73 | 10.7 | 24.6 | 17.1 | 45.5 | 7.67 | 41.4 | 7.53 | 16.4 | 49.5 | 44.9 | inhibition at 10 µM (SNB-75): 9.55%; Mean GI % [1]: 19.00%; inhibition at 10 µM (K-562): 43%; inhibition at 10 µM (HL-60(TB)): 26.1%; inhibition at 10 µM (CCRF-CEM): 18.9%; inhibition at 10 µM (SN 12C): 15.3%; inhibition at 10 µM (MOLT-4): 18.2%; inhibition at 10 µM (HT29): 30.6%; inhibition at 10 µM (LOX IMVI): 5.3%
3 | Oc1ccccc1/C=N/Nc1nc(N/N=C/c2ccccc2O)nc(N2CCCCC2)n1 [compound 7a, 2-[(1e)-(2-{4-[(E)-2-[(2-Hydroxyphenyl)methylidene]hydrazin-1-yl]-6-(piperidin-1-yl)-1,3,5-triazin-2-yl}hydrazin-1-ylidene)methyl] phenol] | 81 | 17 | 33.1 | 22.6 | 36.6 | 51.7 | 29.7 | 75.5 | 51.8 | 32.2 | 34.5 | 36.2 | 30.8 | 69.9 | 63.1 | 54.8 | 40.6 | 22 | 47.4 | 25.6 | inhibition at 10 µM (SNB-75): 25.6%; Mean GI % [1]: 45.09%; inhibition at 10 µM (K-562): 61.8%; inhibition at 10 µM (HL-60(TB)): 52.6%; inhibition at 10 µM (CCRF-CEM): 78.3%; inhibition at 10 µM (SN 12C): 40.5%; inhibition at 10 µM (MOLT-4): 59.1%; inhibition at 10 µM (HT29): 54.7%; inhibition at 10 µM (LOX IMVI): 60.3%
4 | Brc1cccc(/C=N/Nc2nc(N/N=C/c3cccc(Br)c3)nc(N3CCCCC3)n2)c1 [compound 7c, 2,4-Bis[(E)-2-[(3-Bromophenyl)methylidene]hydrazin-1-yl]-6-(piperidin-1-yl)-1,3,5-triazine] | 9.29 | 12.2 | 15.1 | 16.1 | 0.82 | 20.2 | 14.5 | -5.18 | 12.3 | -8.28 | -8.36 | 9.99 | -2.13 | 22.4 | -5.5 | -0.7 | -6.24 | 13.5 | 2.91 | 28.6 | inhibition at 10 µM (SNB-75): -17.3%; Mean GI % [1]: 2.56%; inhibition at 10 µM (K-562): 11.2%; inhibition at 10 µM (HL-60(TB)): 7.75%; inhibition at 10 µM (CCRF-CEM): 18.7%; inhibition at 10 µM (SN 12C): -1.41%; inhibition at 10 µM (MOLT-4): 31.6%; inhibition at 10 µM (HT29): 3.98%; inhibition at 10 µM (LOX IMVI): -5.74%
